These results are taken from ChEMBL document CHEMBL1201862, “PubChem BioAssay data set” (2004).

Among the test systems are XF498; M19-MEL; KM-20L2; DLD-1; LXFL 529; DMS-114; RXF 631; SNB-78; HOP-18.
Holding throughout (test): NCI-60 cell line screen, 48 h

Molecules are shown by their SMILES. Values joined by “and” are separate entries in the source; they are usually repeats but may differ in a detail not shown here. Equal values may be shown once.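 The compound was tested at five concentrations on cells cultured in 96-well plates, with a 48-hour exposure period. At the GI50, growth is halved.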 Active and inactive are the calls of the source. Rule as the data show it: active = GI50 up to about 1.1 µM and inactive = higher. Some results are limits rather than exact numbers.

For the compound `O=C1C(=Cc2ccc(F)cc2)C(=O)c2ccccc21`, the GI50 in the experiment on XF498 is > 100 µM (inactive); in the experiment on M19-MEL, 96.2 µM (inactive); in the experiment with KM-20L2, > 100 µM (inactive); in the experiment on DLD-1, > 100 µM (inactive); in the experiment with LXFL 529, > 100 µM (inactive); in the experiment with DMS-114, > 100 µM (inactive). The GI50 with RXF 631 is > 100 µM (inactive).

On to `CCCCCCCCCCCCCCCC(=O)NCC(COP(=O)([O-])OCC[N+](C)(C)C)OCC` (stereo not given), for which the GI50 is 14.1 µM (inactive) with SNB-78; 12.1 µM (inactive) in the experiment with XF498; 4.5 µM (inactive) in the experiment on M19-MEL; 4.01 µM (inactive) in the experiment with KM-20L2; 5.19 µM (inactive) in the experiment with DLD-1; 13.1 µM (inactive) with LXFL 529. Also, the figures for the GI50 with DMS-114 and in the experiment on HOP-18 were 16 µM (inactive) and 0.92 µM (active), respectively.

As to `OC12CCC3(OC4CCCCO4)c4ccccc4C3C1c1ccccc12` (stereo not given), the GI50 was > 100 µM (inactive) in the experiment on SNB-78; 31.8 µM (inactive) in the experiment with XF498; 90.4 µM (inactive) in the experiment with M19-MEL; 59.3 µM (inactive) with KM-20L2; 41.2 µM (inactive) with LXFL 529; 87.5 µM (inactive) in the experiment with DMS-114. In the experiment with HOP-18, the GI50 is > 100 µM (inactive).

Turning to `Cn1cnc([N+](=O)[O-])c1Sc1nnnn1C`, the GI50 with SNB-78 is 12.7 µM (inactive); in the experiment with XF498, 15.6 µM (inactive); in the experiment on M19-MEL, 15.7 µM (inactive); in the experiment with DLD-1 it was 14.5 µM (inactive); in the experiment on LXFL 529, 12.1 µM (inactive); with DMS-114, 17 µM (inactive). Moreover, the GI50 in the experiment with HOP-18 is 9.86 µM (inactive).

As for `COc1ccc(NC(=O)CC(=O)N/N=C(\C)c2cc3ccccc3oc2=O)cc1`, the GI50 with M19-MEL is > 100 µM (inactive); in the experiment on KM-20L2 it was > 100 µM (inactive); in the experiment with DLD-1 it was > 100 µM (inactive); in the experiment on DMS-114, > 100 µM (inactive); in the experiment on HOP-18, 80.5 µM (inactive).

Regarding `Cc1ccc(S(=O)(=O)SC/C=C\CSS(=O)(=O)c2ccc(C)cc2)cc1`, the GI50 was 25.9 µM (inactive) and 27.2 µM (inactive) with SNB-78; 38.5 µM (inactive) and 23.4 µM (inactive) in the experiment on XF498; 35.3 µM (inactive) and 44.6 µM (inactive) with M19-MEL; 23.2 µM (inactive) and 23.3 µM (inactive) in the experiment on KM-20L2; 22.1 µM (inactive) and 29.1 µM (inactive) with DLD-1.

In the case of `CN(C)/N=N/c1cccc(C(N)=O)c1`, the GI50 with SNB-78, in the experiment with XF498, in the experiment on M19-MEL, with KM-20L2, in the experiment on DLD-1 and with LXFL 529 was > 100 µM (inactive) each time. Besides, the GI50 in the experiment on DMS-114 and in the experiment with HOP-18 was > 100 µM (inactive) each time.

`COC12C(COC(=O)NCCO)C3=C(C(=O)C(C)=C(N)C3=O)N1CC1NC12` (stereo not given): the GI50 was 80.5 µM (inactive) in the experiment with SNB-78; 19.8 µM (inactive) with M19-MEL; 37.9 µM (inactive) in the experiment on KM-20L2; 41.4 µM (inactive) in the experiment on DLD-1; 56.2 µM (inactive) with LXFL 529; 22.9 µM (inactive) in the experiment with DMS-114. The GI50 in the experiment on HOP-18 is 36.8 µM (inactive).

`CN(C(=O)c1ccco1)C(=S)N1CCN(c2ccccc2)CC1`: the GI50 with XF498, with M19-MEL, in the experiment with KM-20L2, with DLD-1, with LXFL 529 and in the experiment on DMS-114 was > 100 µM (inactive) each time. Moreover, in the experiment on HOP-18, the GI50 is > 100 µM (inactive).

Regarding `c1ccc(SC(Sc2ccccc2)=C2CCC2)cc1`, the GI50 is > 100 µM (inactive) in the experiment on SNB-78; 49.8 µM (inactive) in the experiment on XF498; > 100 µM (inactive) in the experiment on M19-MEL; > 100 µM (inactive) in the experiment with KM-20L2; > 100 µM (inactive) in the experiment with DLD-1; > 100 µM (inactive) in the experiment on DMS-114. For the same compound, the GI50 with RXF 631 is > 100 µM (inactive).

Turning to `NC(=O)c1nc(-c2ccc(Cl)c(Cl)c2)nc2ccccc12`, the GI50 with SNB-78 was > 23.7 µM (inactive); with XF498, 57.8 µM (inactive); in the experiment on M19-MEL, > 38.1 µM (inactive); with KM-20L2, > 100 µM (inactive); with DLD-1 it was > 22.8 µM (inactive); in the experiment on LXFL 529, > 26.4 µM (inactive). The GI50 with DMS-114 is > 20.4 µM (inactive); in the experiment on HOP-18, 34.8 µM (inactive).

Turning to `CCCCCCCCCCCCCCCCCCOCC(COCCOCC[N+]1(CCCCCC(=O)[O-])CCCC1)Oc1ncccn1` (stereo not given), the GI50 in the experiment on SNB-78 is 2.56 µM (inactive); with XF498 it was 2.1 µM (inactive); with M19-MEL, 0.7 µM (active); with KM-20L2 it was 1.4 µM (inactive); in the experiment with DLD-1 it was 2.18 µM (inactive); with DMS-114, 1.21 µM (inactive). In addition, the GI50 with HOP-18 is 4.85 µM (inactive).

Turning to `COc1ccc(C(=O)C(CC2C(=O)NC(=O)NC2=O)c2ccc(OC)cc2)cc1` (stereo not given), the GI50 in the experiment on SNB-78, in the experiment on XF498, with M19-MEL, with KM-20L2, with DLD-1 and in the experiment on LXFL 529 was > 100 µM (inactive) each time. Also, the GI50 in the experiment with DMS-114 and in the experiment on HOP-18 was > 100 µM (inactive) each time.

As to `C=CCC1C(=O)CC2(C)CC(=O)C(CC=C)C12C` (stereo not given), the GI50 in the experiment on SNB-78, in the experiment on XF498, in the experiment on M19-MEL, in the experiment on KM-20L2, in the experiment on DLD-1 and with LXFL 529 was > 100 µM (inactive) each time. Moreover, the GI50 in the experiment with DMS-114 and in the experiment on HOP-18 was > 100 µM (inactive) in each case.

For `CC(C)O/C=C1\C(=O)C2(SCCS2)[C@H]2CCCC[C@@H]12`, the GI50 in the experiment with SNB-78 is 49 µM (inactive); in the experiment with M19-MEL, 71 µM (inactive); with KM-20L2, 39.5 µM (inactive); in the experiment on DLD-1 it was 45.9 µM (inactive); in the experiment on LXFL 529, 33.7 µM (inactive); with RXF 631, 52.8 µM (inactive). Moreover, in the experiment on HOP-18, the GI50 is 44.6 µM (inactive).

In the case of `C=CCc1ccc(O)c(-c2cc(C3Oc4c(-c5cc(CC=C)ccc5O)cc(O)cc4[C@@H]3CO)ccc2O)c1` (stereo not given in full), the GI50 was 39.9 µM (inactive) in the experiment with SNB-78; 33.4 µM (inactive) in the experiment with M19-MEL; 26.7 µM (inactive) in the experiment with KM-20L2; 18 µM (inactive) in the experiment on DLD-1; 19.8 µM (inactive) in the experiment on LXFL 529; 14.9 µM (inactive) in the experiment with DMS-114. Further, the GI50 in the experiment with HOP-18 was 32.4 µM (inactive).

Regarding `CC1=CC(=O)c2ccc3c4ccccc4n(C)c3c2C1=O`, the GI50 is 90.8 µM (inactive) in the experiment with SNB-78; 29.2 µM (inactive) in the experiment with XF498; 10.1 µM (inactive) in the experiment on M19-MEL; 62.8 µM (inactive) with DLD-1; 25.8 µM (inactive) in the experiment on LXFL 529; 27.7 µM (inactive) in the experiment on DMS-114. Also, in the experiment on HOP-18, the GI50 is 4.4 µM (inactive).

Take `CC1=NN(C(=O)Nc2ccccc2)C(=O)C2CCC(=O)N12` (stereo not given): the GI50 in the experiment with SNB-78, with XF498, in the experiment with M19-MEL, in the experiment on KM-20L2, in the experiment on DLD-1 and in the experiment on LXFL 529 was > 100 µM (inactive) each time. The GI50 in the experiment with DMS-114 and with RXF 631 was > 100 µM (inactive) each time.

With `O=[N+]([O-])c1cc(/C=N/NS(=O)(=O)c2ccc(F)cc2)c(O)c([N+](=O)[O-])c1`, the GI50 with SNB-78 was 52.6 µM (inactive); in the experiment with M19-MEL it was 49.8 µM (inactive); in the experiment with KM-20L2, 25.9 µM (inactive); in the experiment on DLD-1, 51.3 µM (inactive); in the experiment with DMS-114, 32.2 µM (inactive); in the experiment on HOP-18, 85.3 µM (inactive).

Turning to `O=C(O)CSc1nnc(-c2ccccc2O)[nH]1`, the GI50 in the experiment on SNB-78, with XF498, with M19-MEL, with KM-20L2, with DLD-1 and with LXFL 529 was > 100 µM (inactive) each time. Besides, the GI50 in the experiment on DMS-114 and in the experiment with RXF 631 was > 100 µM (inactive) throughout.

As for `CC1=CC(=C(c2ccc(N)c(C)c2)c2ccc(N)c(C)c2)C=CC1=N`, the GI50 in the experiment with SNB-78 was 4.84 µM (inactive); with XF498, 2.91 µM (inactive); in the experiment with M19-MEL, 2.65 µM (inactive); in the experiment with KM-20L2 it was 3.33 µM (inactive); with DLD-1, 3.78 µM (inactive); with LXFL 529, 1.27 µM (inactive). Moreover, in the experiment with DMS-114, the GI50 is 1.2 µM (inactive).

`COC(=O)C(=O)C(C(=O)C(=O)Nc1ccccc1[N+](=O)[O-])c1nc2ccc([N+](=O)[O-])cc2nc1O` (stereo not given): the GI50 in the experiment with SNB-78, in the experiment with M19-MEL, in the experiment on KM-20L2, in the experiment with LXFL 529, with DMS-114 and with RXF 631 was > 100 µM (inactive) in each case. In the experiment on HOP-18, the GI50 was > 100 µM (inactive).

Turning to `CSC1C=C(C(C)C)CCC1(C)SC` (stereo not given), the GI50 was 16.5 µM (inactive) with SNB-78; 19.6 µM (inactive) in the experiment with XF498; 16.9 µM (inactive) with M19-MEL; 28.2 µM (inactive) in the experiment with KM-20L2; 18 µM (inactive) in the experiment on DLD-1; 18.4 µM (inactive) in the experiment on LXFL 529. Further, in the experiment with DMS-114, the GI50 was 15.7 µM (inactive).

Consider `C/C(=N/O)c1ccc2c(c1)/C(=N/O)c1cc(/C(C)=N/O)ccc1-2`, for which the GI50 with SNB-78 was 17.5 µM (inactive); in the experiment on XF498 it was 21.8 µM (inactive); in the experiment with M19-MEL, 19.4 µM (inactive); in the experiment on KM-20L2, 17.4 µM (inactive); in the experiment on DLD-1, 16.1 µM (inactive); in the experiment on LXFL 529, 14.3 µM (inactive). Further, the GI50 with DMS-114 was 22.4 µM (inactive); in the experiment with HOP-18, 14.1 µM (inactive).

For `O=c1c2ccccc2nc(-c2ccccc2Cl)n1NC1OC(CO)C(O)C(O)C1O` (stereo not given), the GI50 with SNB-78, in the experiment on XF498, in the experiment with M19-MEL, in the experiment with KM-20L2, in the experiment with DLD-1 and in the experiment on LXFL 529 was > 100 µM (inactive) throughout. The GI50 is > 100 µM (inactive) with DMS-114 and 32 µM (inactive) in the experiment on HOP-18.

Turning to `COc1ccc(C(=O)C(c2ccc(OC)cc2)C2(O)C(=O)Nc3c(C)cc(Cl)cc32)cc1` (stereo not given), the GI50 is > 100 µM (inactive) in the experiment on SNB-78; 20.8 µM (inactive) with M19-MEL; > 100 µM (inactive) in the experiment with KM-20L2; 76.4 µM (inactive) with DLD-1; 37.7 µM (inactive) in the experiment on LXFL 529; 59 µM (inactive) in the experiment on RXF 631.
